Laboratory results as given in ChEMBL document CHEMBL4483862, “Open-source discovery of chemical leads for next-generation chemoprotective antimalarials” (2018).

System: Plasmodium berghei
Assay: Luciferase/luciferin-expressing antifolate-resistant parasites were used to infect a culture of HepG2 cells that were pre-incubated with compounds. Infected hepatocytes emit light due to the luciferase reaction. Assay results are presented as the percent inhibition of light emission compared to control. […]
Format: functional
Settings: sporozoite; for IC90: read-out: LUCIFERASE INFECTION ASSAY - IC90
[1] = read-out: LUCIFERASE INFECTION ASSAY - IC50

SMILES | IC90 [µM] | IC50 [1] [µM] | further results
CCCn1c(N)c(C(=O)COC(=O)C2(c3ccc(F)cc3)CCCC2)c(=O)[nH]c1=O | 8.39 | – | IC50 (PBLUC_HILL_SLOPE 3.75, PBLUC_R_SQUARED 0.743, read-out: LUCIFERASE INFECTION ASSAY - IC50): 4.66 µM
COc1ccc(S(=O)(=O)Nc2ccc3c(c2)CS(=O)(=O)C3)cc1 | > 9.34 | – | IC50 (FFLUC_HILL_SLOPE 6.24, FFLUC_R_SQUARED 0.631, read-out: LUCIFERASE INFECTION ASSAY - IC50): > 9.34 µM
CCOc1ccc(N(C)S(=O)(=O)c2ccc(C)c(C(=O)Nc3nc4ccccc4[nH]3)c2)cc1 | 3.87 | – | IC50 (PBLUC_HILL_SLOPE 2.47, PBLUC_R_SQUARED 0.24, read-out: LUCIFERASE INFECTION ASSAY - IC50): 1.59 µM
CC(C)c1cccc(Nc2ccc3nnc(C(F)(F)F)n3n2)c1 | > 10 | > 10 | –
Cc1ccc(C23CC4CC(CC(C(=O)N5CCN(CCc6ccccc6)CC5)(C4)C2)C3)cc1 | > 10 | > 10 | –
CSCCC(C(=O)Oc1c(Cl)cc(Cl)c2ccc(C)nc12)N1C(=O)c2ccccc2C1=O (stereo not given) | > 10 | > 10 | –
Cc1cc(C(=O)NCc2nnc3ccccn23)c(C)n1C1CCCCC1 | 6.61 | – | IC50 (FFLUC_HILL_SLOPE 1.4, FFLUC_R_SQUARED 0.0106, PBLUC_HILL_SLOPE 1.41, PBLUC_R_SQUARED 0.709, read-out: LUCIFERASE INFECTION ASSAY - IC50): 1.39 µM
O=[N+]([O-])c1cc(C(F)(F)F)ccc1N1CCCN(C(=S)Nc2cccc(C(F)(F)F)c2)CC1 | > 6.7 | – | IC50 (FFLUC_HILL_SLOPE 18.8, FFLUC_R_SQUARED 0.397, HEPG2TOX_HILL_SLOPE 0.504, HEPG2TOX_R_SQUARED 0.366, read-out: LUCIFERASE INFECTION ASSAY - IC50): > 6.7 µM
O=C(Cc1csc(NC(=O)c2ccccc2)n1)Nc1ncccc1O | > 10 | > 10 | –
CC1CCc2sc(C(=O)N/N=C/c3ccc(Cl)cc3Cl)cc2C1 (stereo not given) | 5.01 | – | IC50 (HEPG2TOX_HILL_SLOPE 2.35, HEPG2TOX_R_SQUARED 0.954, PBLUC_HILL_SLOPE 8.15, PBLUC_R_SQUARED 0.258, read-out: LUCIFERASE INFECTION ASSAY - IC50): 3.82 µM
CCN(CC)S(=O)(=O)c1cccc(NC(=O)C23CC4CC(C2)CC(c2ccc(C)cc2)(C4)C3)c1 | > 10 | > 10 | –
O=C1NC(c2ccccc2)=C(c2nc3ccccc3s2)C(c2ccc(O)cc2)N1 (stereo not given) | > 10 | – | IC50 (FFLUC_HILL_SLOPE 17.5, FFLUC_R_SQUARED 0.699, PBLUC_HILL_SLOPE 3.26, 2.75, PBLUC_R_SQUARED 0.346, 0.719, read-out: LUCIFERASE INFECTION ASSAY - IC50): 5.94 µM
CN1/C(=C/C=C2c3ccccc3-c3ccccc32)C=Cc2ccccc21 | > 9.9 | – | IC50 (PBLUC_HILL_SLOPE 1.22, PBLUC_R_SQUARED 0.219, read-out: LUCIFERASE INFECTION ASSAY - IC50): 8.03 µM
CC1N(C)c2ccc(/C=C/c3nc4ccccc4s3)cc2C1(C)C (stereo not given) | 4.73 | – | IC50 (HEPG2TOX_HILL_SLOPE 3.14, HEPG2TOX_R_SQUARED 0.947, PBLUC_HILL_SLOPE 1.36, 1.57, PBLUC_R_SQUARED 0.638, 0.693, read-out: LUCIFERASE INFECTION ASSAY - IC50): 1.03 µM
Cc1ccc(C(C)C)c(OCc2ccc(C(=O)N/N=C/c3cccc(O)c3O)cc2)c1 | > 10 | – | IC50 (HEPG2TOX_HILL_SLOPE 2.51, HEPG2TOX_R_SQUARED 0.938, PBLUC_HILL_SLOPE 16, PBLUC_R_SQUARED 0.0407, read-out: LUCIFERASE INFECTION ASSAY - IC50): 9.9 µM
O=C1C(=O)N(Cc2ccccc2F)c2c1cccc2C(F)(F)F | > 10.2 | – | IC50 (FFLUC_HILL_SLOPE 1.03, FFLUC_R_SQUARED 0.0461, HEPG2TOX_HILL_SLOPE 15.2, HEPG2TOX_R_SQUARED 0.946, PBLUC_HILL_SLOPE 1.65, PBLUC_R_SQUARED 0.631, read-out: LUCIFERASE INFECTION ASSAY - IC50): 2.98 µM
C=C(C)C(=O)Oc1ccc(Oc2c(F)c(F)c(-c3c(F)c(F)c(Oc4ccc(OC(=O)C(=C)C)cc4)c(F)c3F)c(F)c2F)cc1 | > 10 | > 10 | –
Cc1cccc(-c2nc3c(NCc4ccccc4)nccc3[nH]2)c1 | 9.18 | – | IC50 (PBLUC_HILL_SLOPE 2.29, PBLUC_R_SQUARED 0.394, read-out: LUCIFERASE INFECTION ASSAY - IC50): 3.51 µM
CC(=O)NCCCc1ccc(C(=O)COC(=O)c2cc(Cl)c[nH]2)cc1 | > 10 | – | IC50 (FFLUC_HILL_SLOPE 2.83, FFLUC_R_SQUARED 0.674, read-out: LUCIFERASE INFECTION ASSAY - IC50): > 10 µM
COc1ccc(S(=O)(=O)N(C)C)cc1NC(=O)CSc1cc(C)c2ccccc2n1 | > 10 | > 10 | –

SMILES | IC90 [µM] | IC50 [1] [µM] | further results
CS(=O)(=O)c1ccc(Nc2cc3[nH]c(-c4cccc(C(F)(F)F)c4)cc3cn2)cc1 | 9.79 | – | IC50 (PBLUC_HILL_SLOPE 3.36, PBLUC_R_SQUARED 0.528, read-out: LUCIFERASE INFECTION ASSAY - IC50): 5.09 µM
Cc1c(C(=O)Nc2ccnn2Cc2ccccc2)cnn1C(C)(C)C | > 10 | – | IC50 (PBLUC_HILL_SLOPE 2.67, PBLUC_R_SQUARED 0.113, read-out: LUCIFERASE INFECTION ASSAY - IC50): > 10 µM
COC(OC)c1ccc(C#N)c(SCC(=O)c2ccc(Cl)cc2)n1 | > 9.1 | > 9.1 | –
O=C(Nc1nc(-c2ccc(Cl)cc2Cl)cs1)C1CC(=O)N(CCc2ccccc2)C1 (stereo not given) | > 10 | – | IC50 (FFLUC_HILL_SLOPE 45.5, FFLUC_R_SQUARED 0.597, PBLUC_HILL_SLOPE 12.9, PBLUC_R_SQUARED 0.652, read-out: LUCIFERASE INFECTION ASSAY - IC50): 9.1 µM
Oc1c(Cn2c(=S)sc3ccccc32)cc(Cl)c2cccnc12 | 1.24 | – | IC50 (FFLUC_HILL_SLOPE 19.2, FFLUC_R_SQUARED 0.535, HEPG2TOX_HILL_SLOPE 1.74, 1.21, HEPG2TOX_R_SQUARED 0.199, 0.803, PBLUC_HILL_SLOPE 4.66, PBLUC_R_SQUARED 0.802, read-out: LUCIFERASE INFECTION ASSAY - IC50): 0.772 µM
COc1ccc(NS(=O)(=O)c2cc([N+](=O)[O-])ccc2NNC(=S)NC2CCCCC2)cc1 | > 10 | > 10 | –
CCN(CCNc1ncnc2sc(-c3ccccc3)cc12)c1cccc(C)c1 | 3.9 | – | IC50 (HEPG2TOX_HILL_SLOPE 2.04, HEPG2TOX_R_SQUARED 0.0176, PBLUC_HILL_SLOPE 12.8, PBLUC_R_SQUARED 0.373, read-out: LUCIFERASE INFECTION ASSAY - IC50): 3.29 µM
c1ccc(-c2nnc(-c3ccccn3)nc2-c2ccccc2)cc1 | 4.22 | – | IC50 (HEPG2TOX_HILL_SLOPE 3.54, HEPG2TOX_R_SQUARED 0.979, PBLUC_HILL_SLOPE 15.1, PBLUC_R_SQUARED 0.651, read-out: LUCIFERASE INFECTION ASSAY - IC50): 3.65 µM
COc1ccccc1C(=O)Nc1ccc2c(c1)nc(CCN1CCCC1)n2C | > 8.72 | – | IC50 (PBLUC_HILL_SLOPE 41.2, PBLUC_R_SQUARED 0.16, read-out: LUCIFERASE INFECTION ASSAY - IC50): 8.38 µM
Cc1onc(-c2ccc(Cl)cc2)c1-c1ccnc(SCC(=O)Nc2ccc(Cl)cc2)n1 | > 7 | – | IC50 (FFLUC_HILL_SLOPE 3.87, FFLUC_R_SQUARED 0.391, HEPG2TOX_HILL_SLOPE 3.01, HEPG2TOX_R_SQUARED 0.647, PBLUC_HILL_SLOPE 15.9, PBLUC_R_SQUARED 0.148, read-out: LUCIFERASE INFECTION ASSAY - IC50): 6.77 µM
CNc1nc2cnc(Nc3cccc(C)c3)cc2n1Cc1ccc(OC)c(OC)c1 | > 10 | – | IC50 (HEPG2TOX_HILL_SLOPE 6.56, HEPG2TOX_R_SQUARED 0.678, read-out: LUCIFERASE INFECTION ASSAY - IC50): > 10 µM
CNS(=O)(=O)c1ccc(C(=O)Nc2ccc(Nc3ccccc3)cc2)o1 | 1.18 | – | IC50 (HEPG2TOX_HILL_SLOPE 2.07, HEPG2TOX_R_SQUARED 0.347, PBLUC_HILL_SLOPE 43.9, PBLUC_R_SQUARED 0.459, read-out: LUCIFERASE INFECTION ASSAY - IC50): 1.12 µM
CC(C)N(C(=O)COC(=O)C1=NNC(=O)CC1)C(C)C | > 10 | – | IC50 (FFLUC_HILL_SLOPE 15.7, FFLUC_R_SQUARED 0.158, read-out: LUCIFERASE INFECTION ASSAY - IC50): > 10 µM
CCCn1c(NC(=O)C2CC(=O)N(Cc3ccc(C)cc3)C2)nc2ccccc21 (stereo not given) | > 10 | > 10 | –
COc1cc(C(=O)OCc2c(C)cc(C(C)(C)C)cc2C)cc(OC)c1OC | > 10 | > 10 | –
Clc1ccc(SCc2cc(NCc3ccccc3)nc(-c3cccnc3)n2)cc1 | 7.84 | 6.53 | –
O=C1CCCN1c1ccc(S(=O)(=O)Oc2ccc(Cl)cc2)cc1 | 2.91 | – | IC50 (HEPG2TOX_HILL_SLOPE 0.952, HEPG2TOX_R_SQUARED 0.945, PBLUC_HILL_SLOPE 2.14, PBLUC_R_SQUARED 0.73, read-out: LUCIFERASE INFECTION ASSAY - IC50): 1.04 µM
FC(F)(F)Oc1ccc(-c2cnc3ccc(NCc4ccncc4)nn23)cc1 | 1.17 | – | IC50 (HEPG2TOX_HILL_SLOPE 0.34, HEPG2TOX_R_SQUARED 0.62, PBLUC_HILL_SLOPE 3.72, PBLUC_R_SQUARED 0.739, read-out: LUCIFERASE INFECTION ASSAY - IC50): 0.649 µM
O=C1N(Cc2ccccn2)C(=O)C2(CCN(Cc3cc4ccccc4o3)CC2)N1CCc1ccccc1 | > 6.67 | – | IC50 (HEPG2TOX_HILL_SLOPE 6.35, HEPG2TOX_R_SQUARED 0.629, PBLUC_HILL_SLOPE 2.7, PBLUC_R_SQUARED 0.846, read-out: LUCIFERASE INFECTION ASSAY - IC50): 4.34 µM
CCOC(=O)c1c(NC(=O)COC(=O)c2ccccc2Nc2cccc(C)c2C)sc(C(=O)N(C)C)c1C | > 10 | > 10 | –
